Laboratory results as given in paper PMC9416745, “The Effect of 1,2,4-Triazole-3-thiol Derivatives Bearing Hydrazone Moiety on Cancer Cell Migration and Growth of Melanoma, Breast, and Pancreatic Cancer Spheroids” (Pharmaceuticals, 2022).

What was measured:
[1] = test system: human malignant melanoma cell line IGR39; assay: MTT cell viability assay, IGR39; format: cell-based; details: 50 µM, 72 h
Experimental: (§1) The effect of synthesized compounds on cell viability was studied using 3-(4,5-dimethylthiazol-2-yl)-2,5-diphenyltetrazolium bromide (MTT; Sigma-Aldrich Co., St Louis, MO, USA) assay, as described elsewhere. Briefly, IGR39, MDA-MB-231, Panc-1, and HF cells were seeded in 96-well plates (Corning) in triplicate at a volume of 100 μL (IGR39, MDA-MB-231 and Panc-1: 4 × 10^3 cells/well; HF: 5 × 10^3 cells/well). After 24 h, cells were treated with 50 μM of tested compounds. After 72 h, the MTT reagent was added and cells were incubated for 4 h. Then the medium was aspirated, and the formed formazan crystals were dissolved in 100 μL DMSO (Sigma-Aldrich Co., St. Louis, MO, USA). The absorbance was measured at 570 and 630 nm using a multi-detection microplate reader. The compound effect on cell viability was calculated using the formula:(1) Relative cell viability (%)=A−A0/ANC−A0 where
(§2) • A—mean of absorbance of the tested compound, • A0—mean of absorbance of blank (no cells, positive control), and • ANC—mean of absorbance of negative control (only cells, no treatment).
(§3) The compound serial dilutions from 50 µM to 1.56 µM were made in a medium and added to the cells in triplicates. The EC50 value representing the concentration of a compound causing 50% reduction of cancer cell metabolic activity was calculated using the Hill equation.

[2] = test system: IGR39, MDA-MB-231 and Panc-1 cell lines; assay: MTT cell viability assay, result stated for all tested cancer cell lines together; format: cell-based, human; details: 72 h; for EC50: Homo sapiens, range over cancer cell lines, read-out: EC50 values against the tested cancer cell lines (range)
Experimental: as §1, §2, §3

Panc-1 cells = assay: MTT, effect of 10 µM compound on Panc-1 cell viability (Procedure S1); format: cell-based; details: Homo sapiens, after 72 h
Experimental: (§4) The ‘Wound healing’ assay was used to evaluate compound activity on cell migration. […] The effect of this concentration on cell viability after 24 h, 48 h and 72 h was studied in separate experiments (Figures S58–60) using the MTT assay (the procedure is described in Supplementary Materials).
(§5) Procedure S1. Evaluation of 10 µM compound concentration effect on cell line viability.
(§6) The effect of 10 µM compounds on cell viability was studied using 3-(4,5-dimethylthiazol-2-yl)-2,5-diphenyltetrazolium bromide (MTT; Sigma-Aldrich Co., St Louis, MO, USA) assay. IGR39, MDA-MB-231, and Panc-1 cells were seeded in 96-well plates (Corning) in triplicates at a volume of 100 µL at 4 × 10^3 cells/well). After 24 h, the cells were treated with 10 µM of compounds 4, 7, 8, 10, 14, 17, and 18. After 24 h, 48 h and 72 h (only Panc-1 cells), the MTT reagent has been added and cells were incubated for 4 h. Then the medium was aspirated, and the formed formazan crystals were dissolved in 100 µL DMSO (Sigma-Aldrich Co., St. Louis, MO, USA). The absorbance was measured at 570 and 630 nm using a multi-detection microplate reader. Compound effect on cell viability was calculated according to a formula:
(§7) Relative cell viability ሺ%ሻ = A− A଴
(§8) A – mean of absorbance of tested compound, A0 – mean of absorbance of blank (no cells, positive control), ANC – mean of absorbance of negative control (only cells, no treatment).

[3] = test system: IGR39, MDA-MB-231 and Panc-1 cell migration; assay: 'Wound healing' cell migration assay, stated for all tested cell lines; format: cell-based, human; details: 10 µM, compared to the control
Experimental: (§9) Briefly, melanoma IGR39, human triple-negative breast cancer MDA-MB-231, and pancreatic carcinoma Panc-1 cells were seeded in 24-well plates at a density of 6 × 10^4 cells/well and incubated for 48 h in previously described cell culture medium at 37°C in a humidified atmosphere containing 5% CO2. Then the scratch was made using a 100 µL pipette tip. Cells were washed once with PBS, and the fresh medium containing 10 µM of compounds 4, 7, 8, 10, 14, 17, and 18 was added. Medium containing 0.1% DMSO was used as a negative control. Cells were incubated at 37 °C in a humidified atmosphere containing 5% CO2.
(§10) The ‘Wounds’ were captured at the intervals of 0 h, 24 h, 48 h and 72 h (only for the Panc-1 cell line) from scratch under the phase contrast microscope at a 4× magnification. The wound area was analysed using the ImageJ program (National Institute of Health, Bethesda, MD, USA).

[4] = test system: IGR39, MDA-MB-231 and Panc-1 tumour spheroids; assay: 3D cell cultures (spheroids), stated for all three spheroid types; format: cell-based, human; details: 10 µM, 8 days of incubation
Experimental: (§11) Cancer cell spheroids were formed using the magnetic 3D Bioprinting method, as described elsewhere. Briefly, melanoma IGR39, triple-negative breast cancer MDA-MB-231 cells, pancreatic cancer Panc-1 cells, and human fibroblasts at 70% confluency in a 6-well plate were incubated with Nanoshuttle (n3D Biosciences, Inc., Houston, TX, USA) for 8 h at 37°C in a humidified atmosphere containing 5% CO2. Then cells were trypsinized, centrifuged, and seeded into an ultra-low attachment 96-well plate in a volume of 100 µL (1.5 × 10^3 cancer cells and 1.5 × 10^3 human fibroblasts/well). The plate was placed on a magnetic drive and incubated for 2 days at 37°C in a humidified atmosphere containing 5% CO2. Then the fresh medium containing 10 µM of the tested compound was added to the wells. Spheroids were captured every two days using the Olympus IX73 inverted microscope (OLYMPUS CORPORATION, Tokyo, Japan). Quantitative analysis of compound anticancer activity in spheroids was performed using ImageJ, version 1.53o (National Institutes of Health, USA) and Microsoft Office Excel 2016 software (Microsoft Corporation, Redmond, WA, USA).
(§12) On the last day of incubation, 10 µL of WST-1 reagent (Sigma-Aldrich Co, St. Louis, MO, USA) was added to each well with spheroids. After 10 h of incubation, 50 µL of liquid from each well were transferred to the new 96-well plate and the absorbance was measured at 460 and 530 nm using a multi-detection microplate reader. Spheroid cell viability was calculated using a formula provided in Section 3.2.2.

melanoma IGR39 spheroids = assay: 3D cell cultures (spheroids), IGR39; format: cell-based, human; details: 10 µM, 8 days of incubation
Experimental: as §11, §12

[5] = test system: human triple-negative breast cancer MDA-MB-231; assay: MTT cell viability assay, MDA-MB-231; format: cell-based; details: 50 µM, 72 h
Experimental: as §1, §2, §3

IGR39 cells = assay: MTT, effect of 10 µM compound on IGR39 cell viability (Procedure S1); format: cell-based; details: Homo sapiens, IGR-39, after 48 h of incubation
Experimental: as §4, §5, §6, §7, §8

[6] = test system: MDA-MB-231 cell migration; assay: 'Wound healing' cell migration assay, MDA-MB-231; format: cell-based, human; details: 10 µM, both after 24 h and 48 h of incubation
Experimental: as §9, §10

melanoma A375 cell = test system: melanoma A375 cell; set-up: method as in PMID 21700700; details: cited from earlier work
melanoma cell = test system: melanoma cell; set-up: method as in PMID 27572607; details: cited from earlier work

Row | EC50 [2] | melting point | SMILES | viability at 10 µM (Panc-1 cells) | activity in 3D cell cultures (spheroids) [4] | melanoma IGR39 spheroid growth (melanoma IGR39 spheroids) | viability at 10 µM (IGR39 cells) | MDA-MB-231 cell migration [6] | also measured
1 | 2 to 17 µM | 252 to 253 °C | O=C(CSc1nnc(CCNc2ccccc2)n1-c1ccccc1)NN=C1C(=O)Nc2ccccc21 [Compound 4, N′-(2-oxoindolin-3-ylidene)-2-((4-phenyl-5-(2-(phenylamino)ethyl)-4H-1,2,4-triazol-3-yl)thio)acetohydrazide] | 74.3 ± 3.4% | most active | mostly inhibited |  |  | selectivity against the melanoma IGR39 cell line (screening) [1]: moderate selectivity; effect on cell migration [3]: did not possess activity
2 | 2 to 17 µM | 215 to 216 °C | O=C(CSc1nnc(CCNc2ccccc2)n1-c1ccccc1)NN=Cc1ccc[nH]1 [Compound 14, N′-((1H-pyrrol-2-yl)methylene)-2-((4-phenyl-5-(2-(phenylamino)ethyl)-4H-1,2,4-triazol-3-yl)thio)acetohydrazide] |  | most active | mostly inhibited | 67.9 ± 1.8% | migrated slower | activity against the IGR39 cell line (screening) [1]: least active; activity towards the triple-negative breast cancer cell line (screening) [5]: relatively higher activity
3 |  |  | O=C(CSc1nnc(CCNc2ccccc2)n1-c1ccccc1)NN=Cc1ccccc1O [Compound 17, N′-(2-hydroxybenzylidene)-2-((4-phenyl-5-(2-(phenylamino)ethyl)-4H-1,2,4-triazol-3-yl)thio)acetohydrazide] | 79.7 ± 3.8% | most active | began to disintegrate | 76 ± 7.2% | migrated slower | activity against all tested cancer cell lines (screening) ([2]; 50 µM): most active
4 |  |  | CN(C)/N=N/c1[nH]cnc1C(N)=O [Dacarbazine] |  |  |  |  |  | concentrations inhibiting melanoma A375 cell proliferation (melanoma A375 cell): 25 to 100 µM
5 |  |  | CC(C)(C)c1nc(-c2cccc(NS(=O)(=O)c3c(F)cccc3F)c2F)c(-c2ccnc(N)n2)s1 [dabrafenib] |  |  |  |  |  | concentration reducing melanoma cell viability (melanoma cell): nanomolar
